# Reference: PubChem BioAssay (NCI)
#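 Growth conditions: 96-well plates. Treatment: test compound, 48 hours, 5 concentrations. Analysis: linear interpolation between bracketing concentrations; unreached endpoints set to highest concentration. GI50 is the concentration that inhibits growth by half. The concentration for full growth arrest is given as TGI.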
# Key:
# Assay in all cases: DTP human tumour cell line panel, 48 h
# [1] = system: 786-0 renal
# [2] = system: A498 renal
# [3] = system: A549 NSCLC
# [4] = system: ACHN renal
# [5] = system: BT-549 breast
# [6] = system: CAKI-1 renal
# [7] = system: CCRF-CEM leukemia
# [8] = system: COLO 205 colon
# [9] = system: DU-145 prostate
# [10] = system: EKVX NSCLC
# [11] = system: HCC-2998 colon
# [12] = system: HCT-116 colon
# [13] = system: HCT-15 colon
# [14] = system: HL-60(TB) leukemia
# [15] = system: HOP-62 NSCLC
# [16] = system: HOP-92 NSCLC
# [17] = system: HS 578T breast
# [18] = system: HT29 colon
# [19] = system: IGROV1 ovarian
# [20] = system: K-562 leukemia
# [21] = system: KM12 colon
# [22] = system: LOX IMVI melanoma
# [23] = system: M14 melanoma
# [24] = system: MALME-3M melanoma
# [25] = system: MCF7 breast
# [26] = system: MDA-MB-231 breast
# [27] = system: MDA-MB-435
# [28] = system: MOLT-4 leukemia
# [29] = system: NCI-H226 lung
# [30] = system: NCI-H23 lung
# [31] = system: NCI-H460 lung
# [32] = system: NCI-H522 lung
# [33] = system: NCI/ADR-RES ovarian
# [34] = system: OVCAR-3 ovarian
# [35] = system: OVCAR-4 ovarian
# [36] = system: OVCAR-5 ovarian
# [37] = system: OVCAR-8 ovarian
# [38] = system: PC-3 prostate
# [39] = system: RPMI-8226 leukemia
# [40] = system: RXF 393 renal
# [41] = system: SF-268 CNS
# [42] = system: SF-295 CNS
# [43] = system: SF-539 CNS
# [44] = system: SK-MEL-2 melanoma
# [45] = system: SK-MEL-28 melanoma
# [46] = system: SK-MEL-5 melanoma
# [47] = system: SK-OV-3 ovarian
# [48] = system: SN12C renal
# [49] = system: SNB-19 CNS
# [50] = system: SNB-75 CNS
# [51] = system: SW-620 colon
# [52] = system: T-47D breast
# [53] = system: TK-10 renal
# [54] = system: U251 CNS
# [55] = system: UACC-257 melanoma
# [56] = system: UACC-62 melanoma
# [57] = system: UO-31 renal
structure (smiles),measurement,setting,value
COc1cc(/C=C/C(=O)c2cccc(Nc3nc(Nc4ccccc4)nc(Nc4ccccc4)n3)c2)cc(OC)c1OC,GI50,[1],7.66 µM
same,TGI,[1],43.2 µM
same,GI50,[2],7.47 µM
same,TGI,[2],> 49.9 µM
same,GI50,[3],36.6 µM
same,TGI,[3],> 100 µM
same,GI50,[4],24.1 µM
same,TGI,[4],> 100 µM
same,GI50,[5],8.36 µM
same,TGI,[5],> 100 µM
same,TGI,[6],> 26.2 µM
same,GI50,[7],0.904 µM
same,TGI,[7],5.67 µM
same,GI50,[8],4.77 µM
same,TGI,[8],30.7 µM
same,GI50,[9],5.91 µM
same,TGI,[9],> 100 µM
same,GI50,[10],9.94 µM
same,TGI,[10],> 100 µM
same,GI50,[11],5.5 µM
same,TGI,[11],53.1 µM
same,GI50,[12],2.68 µM
same,TGI,[12],> 66.6 µM
same,GI50,[13],4.57 µM
same,TGI,[13],> 100 µM
same,GI50,[14],1.33 µM
same,TGI,[14],4.1 µM
same,GI50,[15],23.5 µM
same,TGI,[15],> 94.5 µM
same,GI50,[16],1.36 µM
same,TGI,[16],> 31.2 µM
same,GI50,[17],4.83 µM
same,TGI,[17],> 54.4 µM
same,GI50,[18],6.41 µM
same,TGI,[18],> 100 µM
same,GI50,[19],3.22 µM
same,TGI,[19],> 100 µM
same,GI50,[20],1.37 µM
same,TGI,[20],> 38.8 µM
same,GI50,[21],3.71 µM
same,TGI,[21],> 87.9 µM
same,GI50,[22],6.32 µM
same,TGI,[22],> 45.1 µM
same,GI50,[23],24.1 µM
same,TGI,[23],> 100 µM
same,GI50,[24],18.2 µM
same,TGI,[24],79.3 µM
same,GI50,[25],0.588 µM
same,TGI,[25],> 54.1 µM
same,GI50,[26],11.7 µM
same,TGI,[26],> 100 µM
same,GI50,[27],7.67 µM
same,TGI,[27],> 73.4 µM
same,GI50,[28],1.07 µM
same,TGI,[28],4.38 µM
same,GI50,[29],17.2 µM
same,TGI,[29],> 81 µM
same,GI50,[30],6.07 µM
same,TGI,[30],> 100 µM
same,GI50,[31],2.05 µM
same,TGI,[31],20.9 µM
same,GI50,[32],5.11 µM
same,TGI,[32],> 100 µM
same,GI50,[33],3.82 µM
same,TGI,[33],> 100 µM
same,GI50,[34],4.49 µM
same,TGI,[34],56 µM
same,GI50,[35],33.9 µM
same,TGI,[35],> 100 µM
same,GI50,[36],38.4 µM
same,TGI,[36],> 100 µM
same,GI50,[37],0.988 µM
same,TGI,[37],> 100 µM
same,GI50,[38],2.19 µM
same,TGI,[38],> 100 µM
same,GI50,[39],0.53 µM
same,TGI,[39],4.58 µM
same,GI50,[40],1.6 µM
same,TGI,[40],11.1 µM
same,GI50,[41],13.8 µM
same,TGI,[41],> 100 µM
same,GI50,[42],2.58 µM
same,GI50,[43],12 µM
same,TGI,[43],34 µM
same,GI50,[44],7.78 µM
same,TGI,[44],> 65.4 µM
same,GI50,[45],4.02 µM
same,TGI,[45],19.6 µM
same,GI50,[46],2.7 µM
same,TGI,[46],23.8 µM
same,GI50,[47],43.1 µM
same,TGI,[47],> 100 µM
same,GI50,[48],20.7 µM
same,TGI,[48],> 100 µM
same,GI50,[49],10.1 µM
same,TGI,[49],> 100 µM
same,GI50,[50],16 µM
same,TGI,[50],> 100 µM
same,GI50,[51],3.73 µM
same,TGI,[51],> 100 µM
same,GI50,[52],1.98 µM
same,TGI,[52],> 59 µM
same,GI50,[53],63.9 µM
same,TGI,[53],> 100 µM
same,GI50,[54],11.4 µM
same,TGI,[54],> 100 µM
same,GI50,[55],25 µM
same,TGI,[55],> 100 µM
same,GI50,[56],43.8 µM
same,TGI,[56],> 100 µM
same,GI50,[57],5.15 µM
same,TGI,[57],> 100 µM
